The values that follow come from article PMC10790229 (Journal of medicinal chemistry, 2023).

A short description of series [1]: Metabolic stability in human liver microsomes. For orientation: Liver microsomes are a subcellular fraction often used to study metabolism.
Series [2] in a line: Cytotoxicity in uninfected MT-4 cells. It is filed as cell-based. The note with it: human.
In another series the test system is HIV-2 ROD. Description: Anti-HIV-2 activity in MT-4 cells. It counts as cell-based.
The target in series [3] is hexameric HIV-1 CA NL4.3 protein (Human immunodeficiency virus type 1, UniProt P12493). As to the kind of experiment: SPR binding to disulfide-stabilized hexameric HIV-1 CA. The settings on record: CA hexamer. (In SPR one partner is held on a chip, and binding of the other changes the refractive index at the surface.)
A short description of a further series: in vitro. The note with it: human, microsomes.
Series [4] has as its target monomeric HIV-1 CA NL4.3 protein (Human immunodeficiency virus type 1 group M subtype B, UniProt P12493). As to the kind of experiment: SPR binding to monomeric HIV-1 CA. The note with it: SPR, CA monomer.
The test system of a further series is HIV-1 IIIB. Description: Anti-HIV-1 activity in MT-4 cells. The settings on record: HIV-1 IIIB, MT-4 cells. It counts as cell-based.
For another series, the system named is HIV-1. The settings on record: read-out: EC50 antiviral activity; MT-4 cells; cited from earlier work.

Broadly, the amount remaining is the share of the starting amount still present when the sample was taken. Higher therefore signals greater stability. The term CC50 denotes the concentration at which the toxic effect on the cells reaches its halfway point. As a reminder, the EC50 is the concentration needed to bring the measured effect to its halfway point. As a reminder, the CLint scaled is the rate of metabolic loss divided by the concentration. A high value points to faster metabolism.

As to `C[C@]12CC[C@H]3[C@@H](CCC4=CC(=O)CC[C@@]43C)[C@@H]1CC[C@@H]2O` [Testosterone, testosterone], the share remaining at 1 h, 1 µM in series [1] was 95.8%.
Take `COc1ccc(N(C)C(=O)[C@H](Cc2ccccc2)NC(=O)Cc2c(C)[nH]c3ccccc23)cc1` [PF74, reference compound]: the CC50 in series [2] was > 294 µM. Besides, the “SI ROD (CC50/EC50)” value in the series on HIV-2 ROD (HIV-2 ROD, MT-4 cells) is >77.64. In addition, the EC50 in the series on HIV-2 ROD (Human immunodeficiency virus 2, MT4, read-out: EC50 ROD) is 3.78 ± 0.38 µM; with HIV-1 it was 0.87 µM. For the same compound, the “Residence Time Hexamer” value in series [3] is reported as 0.463 min. In “in vitro”, this compound had an intrinsic clearance (CLint scaled) at 1 h, 1 µM of 1900 mL/min/kg. The “Residence Time Monomer” value in series [4] is 0.011 min. Besides, the “SI IIIB (CC50/EC50)” value with HIV-1 IIIB is given as >367.65.
